How the values were obtained:
[1] = cited from earlier work
[2] = Method: The monocentric, prospective, cohort study was approved by the local ethics committee. […] All participants signed an informed consent form before the initiation of treatment and data/biological samples collection. […] Due to the COVID-19 pandemic, we could not completely fulfil the study design, and patients were treated with either 8–10 mg/kg (group A) or 11–12 mg/kg (group B), as per routine clinical treatment. […] Microbiological failure was defined by persistent or breakthrough infection during IE treatment.
The occurrence of CK elevation above the normal value (>170 mU/mL) and eosinophilic pneumonia was evaluated.

[3] = multilevel linear mixed model
Description: In any complex structure, we can identify atomic units (in this case curves) and higher level unit (in this case patients). Treating patients as a random effect will correct standard errors and furnish an estimate of between-group variance. Introducing some covariate in a fixed part of the models helps to explain and so reduce unexplained between-group variance. Results are expressed as beta coefficient with their 95% confidence interval (95% CI) and presented with term-specific p values; the beta coefficient represents the mean variation of outcomes for unit change of quantitative predictors or between levels of categorical or ordinal predictors.
AUC0–24 determined on the fifth day of treatment, when the steady-state conditions were achieved, were calculated and compared between the two different groups of patients.

clinical = settings: human, in vivo; for half-life: Daptomycin t1/2 (elimination half-life), IV, 0.693/kel, median (IQR)
Method: Tubes were centrifuged at 10,400 rpm for at least 10 min at room temperature; separated plasma was then dispensed into polypropylene-labelled tubes and stored at −80°C until the bioanalysis was carried out. […] QcH (80 µg/mL), QcM (40 µg/mL) and QcL (4 µg/mL), by serial dilution in plasma. […] Just before the analysis, patient plasma samples were thawed, and calibrators and quality controls were prepared fresh in the same matrix. Each sample was processed by protein precipitation: 50 µL of plasma was prepared in pre-labelled Eppendorf tubes®. […] In total, 200 µL of the supernatant was transferred to HPLC vials, and 5 µL was injected into the chromatographic column. The HPLC system used was a Thermo Scientific quaternary pump® (Accela pump; Thermo Fisher Scientific, San Francisco, CA, USA) interfaced with an autosampler (Accela autosampler). […] From 3.10 to 4.50 min, the column was again equilibrated to the initial conditions. […] Xcalibur 2.07 and Lcquan2.5.6 software from Thermo Scientific (San Jose, CA, USA) were utilized for the LC-MS/MS system control, data acquisition and data analysis. Calibration curves were generated using weighted (1/x^2) linear regression curves.

[4] = system: Staphylococcus spp. infective endocarditis; test: Microbiological and clinical response of Staphylococcus spp. infective endocarditis; assay type: in vivo, human; settings: all patients, both dose groups
Method: The monocentric, prospective, cohort study was approved by the local ethics committee. […] All participants signed an informed consent form before the initiation of treatment and data/biological samples collection. […] Due to the COVID-19 pandemic, we could not completely fulfil the study design, and patients were treated with either 8–10 mg/kg (group A) or 11–12 mg/kg (group B), as per routine clinical treatment. In six patients, PK data relative to both doses are available, as per the initial protocol. […] Microbiological failure was defined by persistent or breakthrough infection during IE treatment.

CCCCCCCCCC(=O)N[C@@H](Cc1c[nH]c2ccccc12)C(=O)N[C@H](CC(N)=O)C(=O)N[C@@H](CC(=O)O)C(=O)N[C@@H]1C(=O)NCC(=O)N[C@@H](CCCN)C(=O)N[C@@H](CC(=O)O)C(=O)N[C@H](C)C(=O)N[C@@H](CC(=O)O)C(=O)NCC(=O)N[C@H](CO)C(=O)N[C@@H]([C@H](C)CC(=O)O)C(=O)N[C@@H](CC(=O)c2ccccc2N)C(=O)O[C@@H]1C [Daptomycin, daptomycin]
Increase of systemic exposure in elderly individuals (>75 years) compared with younger (18–30 years) [1]: 58% | Eosinophilic pneumonia during treatment ([2]; 8–12 mg/kg daily): none of the patients | CK increase during treatment ([2]; in vivo): none of the patients | MIC (Staphylococcus spp.): < 0.5 µg/mL | Effect of gender on AUC0–24 [3]: gender did not affect the results | Beta coefficient, association of AUC0–24 with dose group ([3]; 95% CI 64–483, p = 0.010): 274 | Dose linearity of pharmacokinetics (clinical): linear daptomycin pharmacokinetics | clearance (clinical; iv, Daptomycin CL): 8.17 mL/min | half-life (clinical; iv, group A 8–10 mg/kg daily, 15 patients): 16.9 h | half-life (clinical; iv, group B 11–12 mg/kg daily, 14 patients): 15.1 h | Breakthrough infections while on treatment [4]: without evidence of breakthrough infections | Microbiologic response [4]: All patients displayed a microbiologic response | Survival at 30 days [4]: All patients were alive

Reference: article PMC11713942 (Therapeutic Advances in Infectious Disease, 2025)
